Values of other authors in patent US20210260012A1, “COMPOSITIONS FOR THE PREVENTION AND TREATMENT OF CUTANEOUS AFFECTIONS” (I.C.F. SRL, priority 2018, published 2021).

System: biofilms from E. coli
Settings: at high concentrations

## CC(=O)NC(CS)C(=O)O (stereo not drawn) [Acetylcysteine, α-acetamido-β-mercaptopropanoic acid]
  reduction in the mass of biofilms: up to 55%
